Measured values published in US7160916B2, “Method of increasing bone density or treating osteoporosis” (Yung Shin Pharmaceutical Ind. Co., Ltd., priority 2003, dated 2007).

What was measured:
Male SD rats = assay: Local injection into proximal tibia, bone histomorphometry (bone growth); assay type: in vivo, rat
Protocol: Assay of bone resorption of osteoclast: Osteoclast precursors were isolated from rat long bones as mentioned above. The cells were re-suspended in a complete DMEM medium and plated into a calcium phosphate apatite-coated 24-well plate, OAAS (Oscotec, OCT USA Inc.) at 1×10^6 cells/0.5 ml/well. The cells were cultured for 5 days in the presence of M-CSF (20 ng/ml) plus sRANKL (50 ng/ml). Indazole 1 was injected daily for additional 3 days in the absence of M-CSF and sRANKL. Culture was terminated on day 8 and the remaining cells in the plate were lysed using 1 N NaOH. Five images per well were obtained using an inverted microscope (200×), and resorbed area was measured using an image analyzer. Local injection Male SD rats weighing 70–88 gm were used. Implantation of a cannula (22G) was done from the posteriolateral side into the proximal tibial metaphysis in both limbs of rats anesthetized with pentobarbital. The cannula had its outer end in the subcutaneous tissue. Indazole 1 was percutaneously injected through the cannula into the proximal tibia once/day for 1 week. The same concentration of DMSO diluted with normal saline was injected into the right side for comparison. On day 14, the rats were sacrificed and tibiae were fixed in 10% formaldehyde for 48 h at 4° C. Bone histomorphometry: After formalin fixation of tibia was completed, the tibiae were then decalcified in 0.5 N hydrochloric acid, dehydrated in an ascending series of ethanol solution and acetone, and embedded in paraffin. Serial sections (5 μm) were cut longitudinally and stained with Mayer's hematoxylin-eosin solution (Yang et al. (1993) Calcif Tissue Int 52:57–61). Images of the growth plate and proximal tibia were photographed using a photoMicroGraphic Digitize integrate System (MGDS; Total-Integra Technology Co., Ltd., Taipei, Taiwan). Bone volume measurements were performed on the whole secondary spongiosa, which is located under the primary spongiosa and characterized by a network of larger trabeculae. Bone volumes were calculated using an image analysis software. All measurements were done in a single-blind fashion. Bone growth: Male young rats (SD) weighing 70–90 gm were divided into six groups. The average weight of the rats in each group was 73.9±1.1 gm. Indazole 1 was dissolved in DMSO and diluted with saline to a final concentration of 10 μM. One of the six groups was a control group, and the other groups were punctuated with a needle cannula alone, injected with a vehicle using a needle cannula (day 1, once), injected with Indazole 1 (day 1, once), injected with a vehicle using a needle cannula (days 1–7, daily), and injected with Indazole 1 (days 1–7, daily), respectively. […] Trabecular bone in the secondary spongiosa increased by 90% after local injection of Indazole 1 for 7 days.

Primary osteoblast cells = assay: Assay of alkaline phosphatase activity in cultured osteoblasts; assay type: cell-based, rat
Protocol: Primary osteoblast cultures: Primary osteoblast cells were prepared from calvaria of 18-day-old fetal Sprague-Dawley (SD) rats according to the following method: Pregnant rats were put in anesthesia using intraperitoneal injection of trichloroacetaldehyde (200 mg/kg). The calvaria of the fetal rats were then dissected with aseptic technique. Soft tissues were removed under a dissecting microscope. The calvaria were divided into small pieces and then treated with 0.1% collagenase (Sigma Chemical, St. Louis, Mo.) solution for 10 minutes at 37° C. The cells released from the calvariae by two 20-minute sequential collagenase digestions were pooled and filtered through 70 μm nylon filters (Falcon, BD BioSciences, San Jose, Calif.). The cells were then grown on plastic cell culture dishes in 95:5 air-CO2 with Dulbecco's modified Eagle's medium (DMEM) (Gibco, Grand Island, N.Y.) which was supplemented with 20 mM HEPES and 10% heat-inactivated FCS, 2 mM-glutamine, penicillin (100 U/ml) and streptomycin (100 μg/ml) (pH adjusted to 7.6). The cell medium was changed twice a week. Osteoblasts were confirmed by morphology and expression of alkaline phosphatase (ALP). To examine the maturation of osteoblasts, cells were cultured for up to 14 days in a growth medium containing ascorbic acid (50 μg/ml) (Sigma Chemical, St. Louis, Mo.) and β-glycerophosphate (10 mM) (Sigma Chemical, St. Louis, Mo.) and the medium was changed every 3 day. Assay of alkalinephosphatase activity: Cells cultured in 6-well plates in the presence or absence of Indazole 1 were harvested in 1 ml of 0.2% Nonidet P-40 and cell suspension was disrupted by sonication. After centrifugation at 1500 g for 5 min, ALP activity in the supernatant was measured by the method of Lowry et al (1954) J Biol Chem 207:19–37.

Compound: OCc1ccc(-c2nn(Cc3ccccc3)c3ccccc23)o1 [Indazole 1, 1-benzyl-3-(5′-hydroxymethyl-2′-furyl)-indazole]
- effect on tibia length (Male SD rats; local injection): not significantly affected
- Trabecular bone in the secondary spongiosa increased by (Male SD rats; local injection for 7 days): 90%
- bone volume of the secondary spongiosa (Male SD rats; local injection into proximal tibia, 0.1 nmole, daily for 7 days, then 7 further days, young male rats): significantly increased
- Tibia length (Male SD rats; local injection, n=9): 3.32±0.02 cm
- concentration dependence of the increase of ALP activity (Primary osteoblast cells): concentration-dependent
- ALP activity (ALP staining) (Primary osteoblast cells; 10 μM for 2 weeks): significantly increased
